Patent US20070099958A1, “Protease inhibitors” (ProZymex A/S, priority 2003, published 2007)

Assays:
Human DPP-I = target: T1, Human DPP-I (Homo sapiens, UniProt P53634); assay: Human dipeptidyl peptidase I (DPP-I) assay; assay type: biochemical; details: Gly-Phe-AFC substrate, pH 6.0, 37° C.; read-out: Primary enzymatic screening (IC50) DPP-I
T1 construct: purchased UniZyme A/S
Method: Human dipeptidyl Peptidase I (DPP-I) Assay
Using this assay, the IC50 value of a compound of the invention as a DPP-I inhibitor was determined using an AFC substrate.
100 mM sodium phosphate (8.9 g Na2HPO4; M=177.99), 150 mM KCl (5.6 g KCl; M=74.6) and 1.5 mM EDTA (279 mg EDTA; M=372.2) was dissolved in 500 mL H2O, and pH was adjusted to 6.0. Cysteine*HCl (Sigma C-1276; M=157.6), 1 mg/mL assay buffer, corresponding to 6 mM, was added to the solution for activation of the DPP-1 enzyme.
Gly-Phe-AFC*TFA (Enzyme Systems Products AFC-033) was used as the substrate for determination of IC50 values. Km was 270 μM. The substrate was solubilized in DMSO to give a 7.5 mM stock solution (2.2 mg of substrate was added to 0.5 mL DMSO).
Human DPP-I (hDDP-I; obtained from UniZyme A/S, DK-2970Hørsholm, Denmark) was stored at −20° C. in a buffer containing 2.5 mM Na-phosphate, 150 mM NaCl, 2 mM cysteamine, 50% glycerol, pH 7.0 at a concentration of 2.5 mg/mL. This stock solution was diluted 200 times in the assay buffer.
The assay was performed in 96-well plates. […] The excitation wavelength was 400 nm, and the emission was measured at 505 nm for 10 minutes at 37° C. […] In the software (SOFTmax Pro) used for data collection from the fluorometer (Molecular Devices: Gemini XS), it was ensured that the measured slopes were linear (R^2>0.99). […]

CYP2D6 = target: T2, CYP2D6 (Homo sapiens, UniProt P10635); assay: CYP2D6 assay (Vivid CYP2D6 Cyan Screening Kit); assay type: in vitro ADME; details: read-out: Metabolism: CYP enzymes (20 μM cutoff or IC50) CYP2D6
T2 construct: purchased PanVera
T2 sequence (P10635 whole entry): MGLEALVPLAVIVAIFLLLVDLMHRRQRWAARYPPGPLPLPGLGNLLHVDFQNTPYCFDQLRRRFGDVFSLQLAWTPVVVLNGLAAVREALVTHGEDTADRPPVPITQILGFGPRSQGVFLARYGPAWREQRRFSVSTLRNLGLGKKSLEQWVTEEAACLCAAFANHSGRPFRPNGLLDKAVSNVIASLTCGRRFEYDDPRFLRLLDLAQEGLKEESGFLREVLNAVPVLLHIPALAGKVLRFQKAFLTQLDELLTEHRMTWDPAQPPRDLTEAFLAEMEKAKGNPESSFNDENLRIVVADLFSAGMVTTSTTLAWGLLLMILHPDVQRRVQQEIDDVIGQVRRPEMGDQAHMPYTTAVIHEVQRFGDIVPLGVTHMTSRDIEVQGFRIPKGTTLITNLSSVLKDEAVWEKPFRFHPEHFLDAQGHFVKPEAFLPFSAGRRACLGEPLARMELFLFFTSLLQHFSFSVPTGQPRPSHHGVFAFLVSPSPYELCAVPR
Method: (§1) Following the procedure for CYP1A2, using the appropriate kits below, the effect of a compound of the invention on the other CYP enzymes was determined:
Vivid® CYP2D6 Cyan Screening Kit from PanVera.

CYP3A4 = target: T3, CYP3A4 (Homo sapiens, UniProt P08684); assay: CYP3A4 assay (Vivid CYP3A4 Red Screening Kit); assay type: in vitro ADME; details: read-out: Metabolism: CYP enzymes (20 μM cutoff or IC50) CYP3A4
T3 construct: purchased PanVera
T3 sequence (P08684 2-503 limits assumed): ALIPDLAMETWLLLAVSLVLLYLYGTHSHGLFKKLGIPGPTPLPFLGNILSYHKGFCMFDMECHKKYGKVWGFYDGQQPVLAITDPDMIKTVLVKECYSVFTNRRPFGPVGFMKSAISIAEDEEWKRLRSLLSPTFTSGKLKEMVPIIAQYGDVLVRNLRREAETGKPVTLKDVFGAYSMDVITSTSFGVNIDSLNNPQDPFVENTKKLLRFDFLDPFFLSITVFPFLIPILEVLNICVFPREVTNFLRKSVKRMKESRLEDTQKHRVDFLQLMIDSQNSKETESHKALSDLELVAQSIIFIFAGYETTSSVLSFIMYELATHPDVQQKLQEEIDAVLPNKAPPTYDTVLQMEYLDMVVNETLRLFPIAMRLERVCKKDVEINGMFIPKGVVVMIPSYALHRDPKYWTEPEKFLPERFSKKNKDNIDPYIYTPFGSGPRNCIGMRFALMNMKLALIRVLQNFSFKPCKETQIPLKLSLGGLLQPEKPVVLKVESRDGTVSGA
Method: as §1
Vivid® CYP3A4 Red Screening Kit from PanVera.

T1 sequence (P53634 231-394 limits assumed): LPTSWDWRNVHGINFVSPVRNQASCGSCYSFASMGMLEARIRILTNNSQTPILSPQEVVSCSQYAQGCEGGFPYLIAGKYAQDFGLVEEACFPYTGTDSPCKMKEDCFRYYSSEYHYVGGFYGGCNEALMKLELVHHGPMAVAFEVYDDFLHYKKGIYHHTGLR
T1 sequence (P53634 395-463 limits assumed): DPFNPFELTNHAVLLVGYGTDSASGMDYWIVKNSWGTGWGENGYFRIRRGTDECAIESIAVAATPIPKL
T1 sequence (P53634 25-143 limits assumed): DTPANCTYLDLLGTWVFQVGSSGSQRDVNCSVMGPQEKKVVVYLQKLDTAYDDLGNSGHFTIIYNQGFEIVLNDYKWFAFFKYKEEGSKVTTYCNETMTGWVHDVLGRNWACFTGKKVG

`CC[C@H](N)C(=O)N[C@H](C#N)Cc1ccc(-c2ccccc2)cc1` [Example 5, (2S)—N-[(2S)-2-aminobutanoyl]-2-amino-3-(1,1′-biphenyl-4-yl)propionitrile] showed an IC50 (Human DPP-I) of 0.013 ± 0.003 µM, an IC50 (CYP2D6) of 12.6 ± 0.677 µM and an IC50 (CYP3A4) of 3.6 ± 3.41 µM.
